Laboratory results from patent US12258332B2, “ASGPR cell surface receptor binding compounds and conjugates” (Lycia Therapeutics, Inc., priority 2021, dated 2025).
“Also recorded” adds a separate entry of the source.

System: HepG2 cells
Assay: Uptake of Alexa488-labelled target IgE bound to omalizumab (OMA) conjugates in HepG2 cells, flow cytometry
Format: cell-based, human
Conditions: omalizumab (anti-IgE) conjugate bound to IgE-Alexa488, equal molar ratios; 1 hour
Procedure: (§1) The omalizumab conjugates of Example 60 were bound to IgE-Alexa488 (prepared according to Example 62), as follows: equal molar ratios of omalizumab (anti-IgE) conjugate and IgE-Alexa488 were added in tissue culture media for 30 minutes at room temperature. The resulting anti-IgE conjugate:IgE antibody-Alexa488 compositions were added to HepG2 cells (100 k cells/50 ul per well, n=2), and Alexa488 fluorescence levels in the cells were measured at 1 hour by flow cytometry. As the fluorescently labelled target (IgE antibody) accumulates in cells, the fluorescence presents a way to measure total intracellular uptake by cells over time.
as §1, with “OMA Ab” for “The omalizumab”, “example compounds I-160-I-163 and I-141” for “Example 60”, “by adapting procedure in” for “according to”, “61),” for “62),”, “OMA(anti-IgE)” for “omalizumab (anti-IgE)”

Compound	relative uptake activity of Alexa488 labeled-target IgE in HepG2 cells
CC(=O)N[C@H]1[C@H](OCCCCC(=O)NCCCNC(=O)CCOCC(COCCC(=O)NCCCNC(=O)CCCCO[C@@H]2O[C@H](CO)[C@H](O)[C@H](O)[C@H]2NC(C)=O)(COCCC(=O)NCCCNC(=O)CCCCO[C@@H]2O[C@H](CO)[C@H](O)[C@H](O)[C@H]2NC(C)=O)NC(=O)CCc2cn(CCOCCOCCOCCOCCOCCOCCOCCOCCOCCOCCOCCOCCOCCOCCOCCOCCOCCOCCOCCOCCOCCOCCOCCOCCC(=O)Oc3c(F)c(F)c(F)c(F)c3F)nn2)O[C@H](CO)[C@H](O)[C@@H]1O [Compound I-137]	comparable activity to the reference conjugate; also recorded: comparable activity to a reference conjugate
CC(=O)N[C@@H]1[C@@H](O)[C@@H](O)[C@@H](CO)O[C@H]1Cc1cn(CCOCCOCCOCCNC(=O)CCC(CCC(=O)NCCOCCOCCOCCn2cc(C[C@@H]3O[C@H](CO)[C@H](O)[C@H](O)[C@H]3NC(C)=O)nn2)(CCC(=O)NCCOCCOCCOCCn2cc(C[C@@H]3O[C@H](CO)[C@H](O)[C@H](O)[C@H]3NC(C)=O)nn2)NC(=O)CCCCCCCCCCC(=O)Oc2c(F)c(F)c(F)c(F)c2F)nn1 [Compound I-140, perfluorophenyl 1-(4-(((2S,3R,4R,5R,6R)-3-acetamido-4,5-dihydroxy-6-(hydroxymethyl)tetrahydro-2H-pyran-2-yl)methyl)-1H-1,2,3-triazol-1-yl)-16,16-bis(1-(4-(((2S,3R,4R,5R,6R)-3-acetamido-4,5-dihydroxy-6-(hydroxymethyl)tetrahydro-2H-pyran-2-yl)methyl)-1H-1,2,3-triazol-1-yl)-13-oxo-3,6,9-trioxa-12-azapentadecan-15-yl)-13,18-dioxo-3,6,9-trioxa-12,17-diazanonacosan-29-oate]	comparable activity to the conjugate having the 0-glycoside
CC(=O)N[C@@H]1[C@@H](O)[C@@H](O)[C@@H](CO)O[C@H]1SCCC(=O)NCCCCCNC(=O)CCOCC(COCCC(=O)NCCCCCNC(=O)CCS[C@@H]1O[C@H](CO)[C@H](O)[C@H](O)[C@H]1NC(C)=O)(COCCC(=O)NCCCCCNC(=O)CCS[C@@H]1O[C@H](CO)[C@H](O)[C@H](O)[C@H]1NC(C)=O)NC(=O)CCCCCCCCCCC(=O)Oc1c(F)c(F)c(F)c(F)c1F [Compound I-141, perfluorophenyl 1-(((2S,3R,4R,5R,6R)-3-acetamido-4,5-dihydroxy-6-(hydroxymethyl)tetrahydro-2H-pyran-2-yl)thio)-16,16-bis((3-((5-(3-(((2S,3R,4R,5R,6R)-3-acetamido-4,5-dihydroxy-6-(hydroxymethyl)tetrahydro-2H-pyran-2-yl)thio)propanamido)pentyl)amino)-3-oxopropoxy)methyl)-3,11,18-trioxo-14-oxa-4,10,17-triazanonacosan-29-oate]	superior uptake to that of the 0-glycoside
CC(=O)N[C@@H]1[C@@H](O)[C@@H](O)[C@@H](CO)O[C@H]1n1cc(COCCOCCOCCNC(=O)CCC(CCC(=O)NCCOCCOCCOCc2cn([C@@H]3O[C@H](CO)[C@H](O)[C@H](O)[C@H]3NC(C)=O)nn2)(CCC(=O)NCCOCCOCCOCc2cn([C@@H]3O[C@H](CO)[C@H](O)[C@H](O)[C@H]3NC(C)=O)nn2)NC(=O)CCCCCCCCCCC(=O)Oc2c(F)c(F)c(F)c(F)c2F)nn1 [Compound I-143, perfluorophenyl 1-(1-((2R,3R,4R,5R,6R)-3-acetamido-4,5-dihydroxy-6-(hydroxymethyl)tetrahydro-2H-pyran-2-yl)-1H-1,2,3-triazol-4-yl)-15,15-bis(1-(1-((2R,3R,4R,5R,6R)-3-acetamido-4,5-dihydroxy-6-(hydroxymethyl)tetrahydro-2H-pyran-2-yl)-1H-1,2,3-triazol-4-yl)-12-oxo-2,5,8-trioxa-11-azatetradecan-14-yl)-12,17-dioxo-2,5,8-trioxa-11,16-diazaoctacosan-28-oate]	superior activity to the reference conjugate
